From ChEMBL document CHEMBL1135457 (J Med Chem, 2002)

Experiments:
[1] = molecular target: T1, Progesterone receptor (Homo sapiens) (UniProt P06401)
T1 sequence (whole entry): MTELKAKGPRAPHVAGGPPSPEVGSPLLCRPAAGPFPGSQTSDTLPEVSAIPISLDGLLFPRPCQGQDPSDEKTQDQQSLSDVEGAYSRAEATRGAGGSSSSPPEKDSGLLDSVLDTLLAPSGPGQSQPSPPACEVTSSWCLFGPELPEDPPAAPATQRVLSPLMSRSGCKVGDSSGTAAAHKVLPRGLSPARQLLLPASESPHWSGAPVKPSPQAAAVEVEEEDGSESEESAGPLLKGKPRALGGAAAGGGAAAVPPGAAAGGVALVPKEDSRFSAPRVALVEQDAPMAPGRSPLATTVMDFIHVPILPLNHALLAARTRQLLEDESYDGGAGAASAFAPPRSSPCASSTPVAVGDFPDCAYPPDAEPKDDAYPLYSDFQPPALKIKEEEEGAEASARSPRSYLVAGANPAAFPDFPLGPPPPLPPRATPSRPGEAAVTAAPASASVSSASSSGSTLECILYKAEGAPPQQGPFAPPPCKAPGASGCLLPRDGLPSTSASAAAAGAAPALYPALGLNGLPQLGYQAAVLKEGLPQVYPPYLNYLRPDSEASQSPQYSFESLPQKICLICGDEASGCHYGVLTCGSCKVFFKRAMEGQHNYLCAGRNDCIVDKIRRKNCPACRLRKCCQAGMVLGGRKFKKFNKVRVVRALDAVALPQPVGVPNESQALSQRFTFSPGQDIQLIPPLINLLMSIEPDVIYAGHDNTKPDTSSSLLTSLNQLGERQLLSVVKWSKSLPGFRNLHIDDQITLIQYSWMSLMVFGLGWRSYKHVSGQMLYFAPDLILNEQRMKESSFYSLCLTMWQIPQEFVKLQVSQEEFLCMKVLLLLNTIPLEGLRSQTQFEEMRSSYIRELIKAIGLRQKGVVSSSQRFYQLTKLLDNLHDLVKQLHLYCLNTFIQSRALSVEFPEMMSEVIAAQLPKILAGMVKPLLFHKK
Description: (§1) Antagonist activity against human Progesterone receptor by displacement of radioligand

Glucocorticoid receptor = molecular target: T2, Glucocorticoid receptor (Homo sapiens, UniProt P04150); assay: Displacement of 10 nM [3H]dexamethasone from human Glucocorticoid receptor
T2 sequence (P04150 whole entry): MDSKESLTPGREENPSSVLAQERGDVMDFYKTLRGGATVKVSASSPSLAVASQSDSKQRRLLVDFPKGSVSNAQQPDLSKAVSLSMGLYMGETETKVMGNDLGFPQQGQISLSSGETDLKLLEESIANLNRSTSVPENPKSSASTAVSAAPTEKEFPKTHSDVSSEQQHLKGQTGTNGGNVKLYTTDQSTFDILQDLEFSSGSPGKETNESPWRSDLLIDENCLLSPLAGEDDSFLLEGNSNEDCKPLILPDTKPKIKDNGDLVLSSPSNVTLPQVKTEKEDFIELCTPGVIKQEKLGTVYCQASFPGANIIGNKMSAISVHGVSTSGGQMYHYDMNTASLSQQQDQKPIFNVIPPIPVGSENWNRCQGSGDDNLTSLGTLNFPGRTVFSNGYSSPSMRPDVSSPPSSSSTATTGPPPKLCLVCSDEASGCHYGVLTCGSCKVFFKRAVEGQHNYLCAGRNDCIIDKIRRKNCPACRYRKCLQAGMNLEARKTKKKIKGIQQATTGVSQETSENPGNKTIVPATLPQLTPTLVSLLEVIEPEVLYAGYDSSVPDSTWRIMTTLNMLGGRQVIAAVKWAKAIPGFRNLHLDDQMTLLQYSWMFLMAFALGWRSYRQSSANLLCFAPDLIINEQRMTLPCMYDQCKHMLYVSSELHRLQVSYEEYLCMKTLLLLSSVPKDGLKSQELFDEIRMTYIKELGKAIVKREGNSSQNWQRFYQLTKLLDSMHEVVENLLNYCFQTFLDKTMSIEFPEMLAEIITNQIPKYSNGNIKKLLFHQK

[2] = molecular target: T3, Mineralocorticoid receptor (Homo sapiens) (UniProt P08235); assay: Antagonist activity against human mineralocorticoid receptor as displacement of radioligand; assay type: functional
T3 sequence (whole entry): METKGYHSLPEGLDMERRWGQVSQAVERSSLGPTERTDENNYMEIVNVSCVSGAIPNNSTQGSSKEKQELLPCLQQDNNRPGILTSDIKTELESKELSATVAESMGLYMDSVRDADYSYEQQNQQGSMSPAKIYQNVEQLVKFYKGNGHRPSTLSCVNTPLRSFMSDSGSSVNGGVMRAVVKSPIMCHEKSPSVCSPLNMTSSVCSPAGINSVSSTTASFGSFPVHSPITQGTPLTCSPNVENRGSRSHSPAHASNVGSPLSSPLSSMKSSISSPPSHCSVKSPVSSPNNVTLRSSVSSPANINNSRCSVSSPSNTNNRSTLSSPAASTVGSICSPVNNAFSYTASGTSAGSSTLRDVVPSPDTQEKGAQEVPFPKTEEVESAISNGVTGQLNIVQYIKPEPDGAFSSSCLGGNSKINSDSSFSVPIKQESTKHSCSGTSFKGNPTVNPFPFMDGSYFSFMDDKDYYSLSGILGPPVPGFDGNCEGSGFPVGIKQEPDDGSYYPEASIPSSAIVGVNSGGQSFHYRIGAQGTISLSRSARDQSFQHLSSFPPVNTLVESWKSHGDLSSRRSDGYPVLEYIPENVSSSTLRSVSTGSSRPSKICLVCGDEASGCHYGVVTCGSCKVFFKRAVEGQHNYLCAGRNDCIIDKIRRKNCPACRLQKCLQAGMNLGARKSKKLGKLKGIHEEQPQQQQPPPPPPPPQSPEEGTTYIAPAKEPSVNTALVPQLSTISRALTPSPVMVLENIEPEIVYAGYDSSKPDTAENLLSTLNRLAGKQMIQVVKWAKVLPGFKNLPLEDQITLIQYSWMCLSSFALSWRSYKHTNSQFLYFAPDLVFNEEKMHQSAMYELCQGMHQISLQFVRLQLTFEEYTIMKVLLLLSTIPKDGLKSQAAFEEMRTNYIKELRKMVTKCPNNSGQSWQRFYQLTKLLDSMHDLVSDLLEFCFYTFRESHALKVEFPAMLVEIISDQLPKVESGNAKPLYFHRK

[3] = molecular target: T3, Mineralocorticoid receptor (Homo sapiens)
[4] = molecular target: T1, Progesterone receptor (Homo sapiens); remark: listed apart in the source
Description: as §1

[5] = molecular target: T4, Glucocorticoid receptor (Homo sapiens) (UniProt P04150)
T4 sequence (whole entry): T2 sequence (P04150 whole entry)
Description: Antagonist activity as displacement of 10 nM [3H]dexamethasone from human Glucocorticoid receptor

Kif [1]	Kif [2]	Structure (SMILES)	Ki (Glucocorticoid receptor)	Kif [3]	Kif [4]	Kif [5]
> 1000 nM		O=C1CC[C@@]2(Cc3ccccc3)c3ccc(O)cc3CC[C@@H]2C1	5.96 nM			
	> 1000 nM	CC#C[C@@]1(O)CC[C@@]2(Cc3ccccc3)c3ccc(O)cc3CC[C@@H]2C1	0.17 nM			
		CC#C[C@]1(O)CCC2C3CCC4=CC(=O)CC[C@]4(Cc4ccc(C)cc4)C3=CC[C@@]21C (stereo partly specified)	0.1 nM	> 1000 nM	> 1000 nM	12 nM
		Oc1ccc2c(c1)CC[C@@H]1C[C@@](O)(C#CCl)CC[C@@]21Cc1ccccc1	0.1 nM	> 1000 nM		4.1 nM
